Literature values, collected in US20240400534A1, “CHEMICAL TOOLS FOR DRUG TARGET IDENTIFICATION AND CHARACTERIZATION” (Dana-Farber Cancer Institute, Inc., priority 2021, published 2024).

Target: USP7 (Homo sapiens, UniProt Q93009)
Details: selective covalent inhibitor of the DUB USP7

Sequence of USP7 (Q93009 whole entry): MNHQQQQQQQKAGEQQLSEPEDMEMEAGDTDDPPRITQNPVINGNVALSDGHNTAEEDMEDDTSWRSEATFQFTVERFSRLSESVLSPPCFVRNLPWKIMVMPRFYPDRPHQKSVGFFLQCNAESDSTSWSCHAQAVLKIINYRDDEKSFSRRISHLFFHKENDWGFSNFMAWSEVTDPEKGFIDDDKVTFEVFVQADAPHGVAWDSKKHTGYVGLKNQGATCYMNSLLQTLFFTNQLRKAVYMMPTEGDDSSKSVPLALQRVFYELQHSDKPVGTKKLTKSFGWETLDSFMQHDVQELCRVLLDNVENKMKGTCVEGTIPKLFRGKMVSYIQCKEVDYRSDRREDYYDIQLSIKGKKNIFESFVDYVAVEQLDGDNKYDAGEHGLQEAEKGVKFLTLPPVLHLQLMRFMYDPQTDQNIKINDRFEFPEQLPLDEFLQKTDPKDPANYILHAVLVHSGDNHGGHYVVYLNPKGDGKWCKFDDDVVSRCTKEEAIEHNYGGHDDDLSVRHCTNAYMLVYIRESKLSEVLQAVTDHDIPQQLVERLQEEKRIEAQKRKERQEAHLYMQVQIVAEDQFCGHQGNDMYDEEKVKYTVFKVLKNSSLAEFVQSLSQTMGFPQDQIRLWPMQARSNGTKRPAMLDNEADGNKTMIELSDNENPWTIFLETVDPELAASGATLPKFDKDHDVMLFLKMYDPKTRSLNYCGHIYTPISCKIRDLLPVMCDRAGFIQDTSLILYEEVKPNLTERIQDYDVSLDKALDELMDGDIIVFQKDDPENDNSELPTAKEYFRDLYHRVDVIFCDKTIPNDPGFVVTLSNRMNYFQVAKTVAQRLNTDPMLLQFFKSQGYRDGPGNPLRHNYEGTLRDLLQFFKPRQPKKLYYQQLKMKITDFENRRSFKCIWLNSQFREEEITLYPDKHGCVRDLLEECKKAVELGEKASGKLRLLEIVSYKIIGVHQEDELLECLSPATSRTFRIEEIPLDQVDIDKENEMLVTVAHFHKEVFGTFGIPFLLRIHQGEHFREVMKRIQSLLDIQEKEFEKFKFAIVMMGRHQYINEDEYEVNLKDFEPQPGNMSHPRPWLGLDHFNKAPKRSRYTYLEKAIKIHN

- IC50: 300 pM
SMILES: CN1CCN(CCC(=O)Nc2ccc3c(=O)n(CC4(O)CCN(C(=O)[C@@H](CCCNC(=O)c5ccc6c(Cl)c7c(nc6c5)CCCC7)Cc5ccccc5)CC4)cnc3c2)CC1 [XL177A]
